Experimental data taken from ChEMBL document CHEMBL6120945, “Peptidomimetic Analogues Act as Effective Inhibitors against SARS-CoV-2 by Blocking the Function of Cathepsin L” (J Med Chem, 2024).
Calls of active or inactive are those of the source. No cut-off for these calls is given here. Where a SMILES comes first, the peptide text is derived from it. The star is where a group is joined. Cbz = O=C(OCc1ccccc1)*

Columns and labels:
[1] = biological target: Replicase polyprotein 1ab (Severe acute respiratory syndrome coronavirus 2, UniProt P0DTD1); assay: Inhibition of recombinant SARS-CoV-2 3CLpro using MCA-AVLQSGFR-Lys(Dnp)-Lys-NH2 as substrate incubated for 1.5 hrs by fluorescence based analysis
[2] = Inhibition of human recombinant Cathepsin L-like protease using Z-FR-AMC as substrate preincubated for 30 mins followed by substrate addition and measured after 1.5 hrs by fluorescence based analysis
Homo sapiens [3] = species on record: Homo sapiens; assay: Inhibition of human recombinant Cathepsin L-like protease using Z-FR-AMC as substrate at 1 uM preincubated for 30 mins followed by substrate addition and measured after 1.5 hrs by fluorescence based analysis; conditions: time 2.0 hrs
Trypsin (Homo sapiens) = Trypsin (Homo sapiens) (UniProt P07477+P07478+P35030); assay: Inhibition of human trypsin at 10 uM relative to control; format: protein assay
[4] = biological target: T1, Cathepsin L2 (Homo sapiens) (UniProt O60911); assay: Inhibition of Cathepsin V (unknown origin) at 10 uM relative to control
T1 sequence (whole entry): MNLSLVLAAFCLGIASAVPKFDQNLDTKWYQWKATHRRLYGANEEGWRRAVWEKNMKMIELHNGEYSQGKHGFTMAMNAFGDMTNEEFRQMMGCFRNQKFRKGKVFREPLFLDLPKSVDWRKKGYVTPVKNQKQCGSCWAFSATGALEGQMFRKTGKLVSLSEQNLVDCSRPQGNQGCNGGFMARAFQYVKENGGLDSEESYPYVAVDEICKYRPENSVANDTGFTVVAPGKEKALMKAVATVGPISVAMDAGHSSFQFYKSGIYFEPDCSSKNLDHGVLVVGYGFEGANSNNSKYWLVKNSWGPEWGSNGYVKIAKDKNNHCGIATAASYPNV

[5] = biological target: Chymotrypsin (Homo sapiens) (UniProt Q99895+P17538+P40313+Q6GPI1); assay: Inhibition of human Chymotrypsin at 10 uM relative to control; format: protein assay
[6] = Inhibition of human recombinant Cathepsin L-like protease using Z-FR-AMC as substrate at 10 uM preincubated for 30 mins followed by substrate addition and measured after 1.5 hrs by […]
SARS-CoV-2 [7] = assay: microbe, parasite or virus in culture; conditions: Severe acute respiratory syndrome coronavirus 2, WIV04, Vero C1008
Description: Antiviral activity against SARS-CoV-2 WIV04 infected in African green monkey Vero E6 pre-infected with cells for 1 hr followed by compound treatment and measured after 24 hrs by qRT-PCR analysis

Cathepsin B [8] = biological target: T2, Cathepsin B (Homo sapiens, UniProt P07858); assay: Inhibition of Cathepsin B (unknown origin) at 10 uM relative to control
SARS-CoV-2 [9] = format: functional, organism-based; conditions: Severe acute respiratory syndrome coronavirus 2; Vero E6; time 12.0 hrs
Vero E6 [10] = assay: Binding affinity to Cathepsin L-like protease in african green monkey Vero E6 cells incubated for 2 hrs by mass spectrometric analysis; format: cell-based; conditions: Chlorocebus aethiops
Vero E6 [11] = assay: Binding affinity to Cathepsin L-like protease in african green monkey Vero E6 cells incubated for 2 hrs by Western blot analysis; format: cell-based; conditions: Chlorocebus aethiops
[12] = Inhibition of recombinant Cathepsin L-like protease in african green monkey Vero E6 cells incubated for 2 hrs by pull down assay; format: cell-based, Chlorocebus aethiops
Homo sapiens [13] = species on record: Homo sapiens; assay: Inhibition of human recombinant Cathepsin L-like protease using Z-FR-AMC as substrate at 10 uM preincubated for 30 mins followed by substrate addition and measured after 1.5 hrs by fluorescence based analysis; conditions: time 2.0 hrs
Cathepsin L2 = biological target: T3, Cathepsin L2 (Homo sapiens, UniProt O60911); assay: Binding affinity to Cathepsin V (unknown origin) assessed as inhibition constant by Morrison equation based analysis
T3 sequence (O60911 whole entry): T1 sequence (whole entry)

Vero E6 [14] = assay: Inhibition of Procathepsin L in african green monkey Vero E6 cells by LC-MS/MS analysis; format: cell-based; conditions: Chlorocebus aethiops
[15] = biological target: Transmembrane protease serine 2 (Homo sapiens) (UniProt O15393); assay: Inhibition of human recombinant TMPRSS2 using Boc-QAR-AMC as substrate at 10 uM preincubated for 30 mins followed by substrate addition and measured after 1.5 hrs by fluorescence based analysis relative to control; conditions: time 2.0 hrs
Chain of Transmembrane protease serine 2 (Homo sapiens) (O15393 1-255 limits assumed): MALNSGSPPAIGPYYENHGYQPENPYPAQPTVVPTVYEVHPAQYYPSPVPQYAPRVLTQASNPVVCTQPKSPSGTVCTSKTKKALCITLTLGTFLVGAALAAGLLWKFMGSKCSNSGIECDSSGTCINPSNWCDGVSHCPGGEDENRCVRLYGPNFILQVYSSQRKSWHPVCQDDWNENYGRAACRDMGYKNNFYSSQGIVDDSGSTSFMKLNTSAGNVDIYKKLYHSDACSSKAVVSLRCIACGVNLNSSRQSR
Chain of Transmembrane protease serine 2 (Homo sapiens) (O15393 256-492 limits assumed): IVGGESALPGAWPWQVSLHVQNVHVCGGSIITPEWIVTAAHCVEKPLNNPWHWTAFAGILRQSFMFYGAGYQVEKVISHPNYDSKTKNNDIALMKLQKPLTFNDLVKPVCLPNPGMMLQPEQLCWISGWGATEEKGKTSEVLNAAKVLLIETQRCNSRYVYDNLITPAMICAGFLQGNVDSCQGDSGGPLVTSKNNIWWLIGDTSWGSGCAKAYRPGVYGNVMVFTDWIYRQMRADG

[16] = Cytotoxicity against african green monkey Vero E6 cells assessed as cell viability incubated for 48 hrs by CCK-8 assay; format: toxicity, cell-based, Vero C1008; conditions: chlorocebus sabaeus
[17] = biological target: Replicase polyprotein 1ab (Severe acute respiratory syndrome coronavirus 2) (UniProt P0DTD1); assay: Inhibition of recombinant SARS-CoV-2 3CLpro using MCA-AVLQSGFR-Lys(Dnp)-Lys-NH2 as substrate at 10 uM incubated for 1.5 hrs by fluorescence based analysis
[18] = tested on: Severe acute respiratory syndrome coronavirus 2; assay: Inhibition of recombinant SARS-Cov-2 Cathepsin L-like protease by LC-MS/MS analysis
[19] = biological target: Transmembrane protease serine 2 (Homo sapiens) (UniProt O15393); assay: Inhibition of human recombinant TMPRSS2 using Boc-QAR-AMC as substrate at 10 uM preincubated for 30 mins followed by substrate addition and measured after 1.5 hrs by fluorescence based analysis; conditions: time 2.0 hrs
[20] = Binding affinity to human recombinant Cathepsin L-like protease using Z-FR-AMC as substrate assessed as inhibition constant preincubated for 30 mins followed by substrate addition and measured after 1 hr by Morrison equation based analysis
Cathepsin B [21] = biological target: T2, Cathepsin B; assay: Binding affinity to Cathepsin B (unknown origin) assessed as inhibition constant by Morrison equation based analysis
[22] = biological target: Replicase polyprotein 1ab (Severe acute respiratory syndrome coronavirus 2) (UniProt P0DTD1); assay: Inhibition of SARS-CoV2 PLpro using Z-RLRGG-AMC as substrate at 10 uM preincubated for 30 mins followed by substrate addition and measured after 1.5 hrs by fluorescence based analysis; conditions: time 2.0 hrs

For CC(C)C[C@@H](NC(=O)/C=C/c1ccccc1)C(=O)N[C@H](C=O)Cc1ccccc1, the IC50 [1] was > 10 µM, the IC50 [2] was > 1 µM and the inhibition (Homo sapiens [3]) was “inactive”.

With O=C(N[C@@H](Cc1ccc(F)cc1)C(=O)N[C@@H](Cc1ccccc1)C(=O)CCl)c1cccc2ccccc12 the inhibition (Trypsin (Homo sapiens)) was “inactive”, the inhibition [4] was “inactive” and the inhibition [5] was “inactive”. The IC50 [6] was 0.00027 µM, the EC50 (SARS-CoV-2 [7]) was 0.26 µM and the inhibition (Cathepsin B [8]) was “inactive”. The Activity (SARS-CoV-2 [9]) was “Active”.

With C#CCCCCOc1ccc(/C=C/C(=O)N[C@@H](CC(C)C)C(=O)N[C@H](C=O)Cc2ccccc2)cc1 the Activity (Vero E6 [10]) was “Active”, the Activity (Vero E6 [11]) was “Active” and the EC50 [12] was 6.21 µM. It also gave an IC50 [2] of 0.0408 µM.

In the case of CC(C)C[C@H](NC(=O)/C=C/c1ccccc1)C(=O)N[C@H](C=O)Cc1ccccc1, the inhibition (Homo sapiens [13]) is reported as “Active”, the inhibition (Trypsin (Homo sapiens)) is reported as “inactive” and the Ki (Cathepsin L2) is reported as 0.00225 µM. For the same compound, the inhibition (Vero E6 [14]) was “Active”, the inhibition [15] was 100% and the inhibition [4] was “inactive”. For the same compound, the inhibition [5] was “inactive”, the CC50 at 48 h [16] was > 100 µM and the inhibition [17] was “inactive”. The inhibition [18] was “Active”, the inhibition [19] was “inactive” and the IC50 [1] was > 10 µM. For the same compound, the Ki [20] was 0.00131 µM, the Ki (Cathepsin B [21]) was 0.0401 µM and the IC50 [2] was 0.0226 µM. The inhibition [22] was “inactive”, the EC50 (SARS-CoV-2 [7]) was 0.31 µM and the inhibition (Cathepsin B [8]) was “inactive”. The Activity (SARS-CoV-2 [9]) was “Active”.

Compound O=C(N[C@@H](Cc1ccccc1)C(=O)N[C@@H](Cc1ccccc1)C(=O)CCl)c1cccc2ccccc12 has an IC50 [6] of 0.00041 µM and an EC50 (SARS-CoV-2 [7]) of 0.4 µM.

O=C(N[C@@H](Cc1ccc(F)cc1)C(=O)N[C@@H](Cc1ccccc1)C(=O)CCl)c1ccc2[nH]ccc2c1 gave an IC50 [6] of 0.00056 µM and an EC50 (SARS-CoV-2 [7]) of 0.41 µM.

In the case of O=C(N[C@@H](Cc1cccc(F)c1)C(=O)N[C@@H](Cc1ccccc1)C(=O)CCl)c1ccc2[nH]ccc2c1, the IC50 [6] is reported as 0.00072 µM and the EC50 (SARS-CoV-2 [7]) is reported as 1.75 µM.

For CC(C)C[C@H](NC(=O)/C=C/c1ccccc1)C(=O)N[C@H](C=O)C[C@@H]1CCCNC1=O, the CC50 at 48 h [16] was > 100 µM and the EC50 (SARS-CoV-2 [7]) was 1.51 µM.

For C#CCCCCOc1ccc(/C=C/C(=O)N[C@@H](CC(C)C)C(=O)N[C@@H](Cc2ccccc2)C(=O)OC)cc1, the CC50 at 48 h [16] was > 100 µM, the IC50 [1] was > 10 µM and the EC50 (SARS-CoV-2 [7]) was > 100 µM.

With O=C(N[C@@H](Cc1cccc(F)c1)C(=O)N[C@@H](Cc1ccccc1)C(=O)CCl)c1cccc2ccccc12 the IC50 [6] was 0.00134 µM.

In the case of COC(=O)[C@H](Cc1ccccc1)NC(=O)[C@H](CC(C)C)NC(=O)/C=C/c1ccccc1, the CC50 at 48 h [16] is reported as > 100 µM, the IC50 [1] is reported as > 10 µM and the EC50 (SARS-CoV-2 [7]) is reported as > 100 µM.

Compound O=C(N[C@@H](Cc1ccccc1)C(=O)N[C@@H](Cc1ccccc1)C(=O)CCl)c1ccc2[nH]ccc2c1 has an IC50 [6] of 0.0008 µM.

With CC(C)C[C@H](NC(=O)/C=C/c1ccccc1)C(=O)N[C@H](C=O)C[C@@H]1CCNC1=O the CC50 at 48 h [16] was > 100 µM.

With CC(C)C[C@H](NC(=O)OCc1ccccc1)C(=O)N[C@H](C=O)Cc1ccccc1 (Cbz-Leu-Phe-aldehyde) the IC50 [1] was > 10 µM and the IC50 [2] was 0.00988 µM.
